Test system: INS-1 cells transfected with prepro-hIAPP-HA
Assay: pro-hIAPP accumulation and apoptosis in transfected INS-1 cells
Type: cell-based, mice
Conditions: for accumulation of pro-hIAPP dimers: western blot, anti-HA
Protocol: (FIG. 13A) INS-1 cells transfected with non-amyloidogenic prepro-mIAPP-HA or amyloidogenic prepro-hIAPP-HA construct were treated with MSL or MSL-7 followed by western blot analysis using anti-HA antibody. (FIG. 13B) the transfected cells of (FIG. 13A) were treated with MSL-7 in the presence or absence of bafilomycin followed by western blot analysis using anti-HA antibody. (FIG. 13C) The transfected cells were treated with MSL-7 in the presence or absence of 3-MA, after which the amount of […] contained in the cell lysates were measured. (FIG. 13D) HFD-fed hIAPP+ mice were administered with MSL-7, and non-fasting glucose level was monitored. (FIG. 13E) IPGTT. (FIG. 13F) HFD-fed hIAPP+ mice were administered with MSL-7 for 8 weeks and the insulinogenic index was measured. (FIG. 13G) HFD-fed hIAPP+ mice were administered with MSL-7 for 8 weeks and the pancreatic section was obtained. All antibody was used for immunohistochemistry (left). The percentage of A11-[…] cells among DAPI+ cells (right). (FIG. 13H) FSB stained pancreatic section of HFD-fed hIAPP+ mice administered with MSL-7 for 8 weeks (left). Average fluorescence intensity/area (right).
Screening of autophagy enhancer. […] Luciferase assay. […] Firefly luciferase was determined after mixing 5 μl of lysate with 25 μl of Luciferase Assay Reagent II. Renilla luciferase was then determined after further addition of 20 ul of Stop&Glo Reagent. […] Cytotoxicity was determined by the measurement of LDH release in cell culture media using the LDH kit (Roche), according to the protocol from the manufacturer. […] Imaging and image quantification. […] Formation of acidic vesicular organelles was quantitated by staining the cells with acridine orange (Invitrogen, 5 ug/ml, 10 min). […] Cells or tissues were solubilized in lysis buffer supplemented with protease and phosphatase inhibitors and protein concentration was measured by the Bradford method. Ten to 30 micrograms were loaded on 4-12% Bis-Tris gel (NUPAGE, Invitrogen) or 8-15% SDS-PAGE, transferred to PVDF membranes and analyzed by western blot using the ECL method (Pierce). […]

SMILES | accumulation of pro-hIAPP dimers | apoptosis of cells transfected with prepro-hIAPP (in the presence of 3-MA)
CSc1oc(-c2ccccc2)nc1S(=O)(=O)c1ccc(F)cc1 [MSL] | reduced | –
COc1oc(-c2ccccc2Cl)nc1S(=O)(=O)c1ccccc1 [MSL-7, 2-(2-chlorophenyl)-5-methoxy-4-(phenylsulfonyl) oxazole] | reduced | significantly reduced

Reference: US10881642B2, “Autophagy enhancer and use thereof” (Industry-Academic Cooperation Foundation, Yonsei University, priority 2016, dated 2021)
